Several values for one entry are separate records, joined by “and”; a condition that tells them apart may be missing. Identical values can stand only once. Like-named read-outs stand apart in the source and are kept apart here.
How the values were obtained:
Experiment in all cases: greenhouse post-emergence herbicidal test
[1] = tested on: GALAP; assay type: in vivo, Galium aparine; design: key to herbicidal activity against GALAP found: rating on a scale from 0 to 100; conditions: post emergence
Outline: (§1)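 Herbicidal activity scored on a 0 (no damage) to 100 (plants destroyed) scale, usually 20 days after water-based spraying of 1–15 cm plants grown in loamy sand at 10-25 °C or 20-35 °C depending on species. Components were applied from 10% emulsion concentrates; Colby's E=X+Y−(X·Y/100) gives the additive expectation.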

[2] = tested on: IPOHE; assay type: in vivo, Ipomoea hederacea; design: key to herbicidal activity against IPOHE found: rating on a scale from 0 to 100; conditions: post emergence; for pest or weed control at 31.25 g/ha: 31.25 g/ha a.i.
Outline: as §1

[3] = tested on: PAPRH; assay type: in vivo, Papaver rhoeas; design: key: rating on a scale from 0 to 100
Outline: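 Seeds sown per species in loamy sand with roughly 4.6% humus; seedlings raised to 1 to 15 cm, then treated with water-borne spray of a 10% by weight emulsion concentrate. Response assessed on day 20 from 0 (normal growth) to 100 (destroyed).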

[4] = tested on: SEBEX; assay type: in vivo, Sesbania exaltata; conditions: application rate a.i.: I.1 31.25 g/ha
Experimental: The culture containers used were plastic pots containing medium loamy sand with approximately 4.6% of humus and 69.9% sand as substrate. The seeds of the test plants were sown separately for each species.
For the post-emergence treatment, the test plants were grown to a plant height of from 1 to 15 cm, depending on the plant habit, and only then treated with the active compounds which had been suspended or emulsified in water. To this end, the test plants were either sown directly, and grown in the same containers, or they were first grown separately as seedlings and transplanted into the test containers a few days prior to treatment.
Depending on the species, the plants were kept at 10-25° C. and 20-35° C., respectively.
The test period extended over 1 to 3 weeks. During this time, the plants were tended and their response to the individual treatments was evaluated 20 days after treatment except mentioned otherwise.
Evaluation was carried out using a scale from 0 to 100. 100 means no emergence of the plants, or complete destruction of at least the above-ground parts, and 0 means no damage or normal course of growth.
The respective stated components A and B, and, if appropriate, C, were formulated as a 10% by weight strength emulsion concentrate and, with addition of the amount of solvent system, introduced into the spray liquor used for applying the active compound. In the examples, the solvent used was water.
In the examples below, using the method of S. R. Colby (1967) “Calculating synergistic and antagonistic responses of herbicide combinations”, Weeds 15, p. 22 ff., the value E, which is expected if the activity of the individual active compounds is only additive, was calculated. E=X+Y−(X·Y/100)

[5] = applied alone at 31.25 g/ha a.i.
[6] = I.1 31.25 g/ha, B.103 15 g/ha a.i.
[7] = application rate a.i.: I.1 62.5 g/ha, B.40 (imazethapyr) 7.5 g/ha, alone or as mixture (composition 1.40)

## O=C(O)c1cc(C2CC2)nc2onc(C3CC3)c12 [I.1]
[1]; I.1 62.5 g/ha, B.95 2 g/ha a.i.
  herbicidal activity against GALAP found: 60
[1]; a.i. g/ha: I.1 15.6, B.67 125, 20 days after treatment
  herbicidal activity against GALAP found: 20%
[1]; a.i. g/ha: I.1 20.8, B.67 62.5, 20 days after treatment
  herbicidal activity against GALAP found: 0%
[1]; a.i. g/ha: I.1 31.25, B.67 125, 20 days after treatment
  herbicidal activity against GALAP found: 75%
[1]; a.i. g/ha: I.1 31.25, B.92 0.5, 20 days after treatment
  herbicidal activity against GALAP found: 65%
[1]; a.i. g/ha: I.1 62.5, B.191 225, 20 days after treatment
  herbicidal activity against GALAP found: 65%
[1]; a.i. g/ha: I.1 62.5, B.67 62.5, 20 days after treatment
  herbicidal activity against GALAP found: 10%
[1]; a.i. g/ha: I.1 62.5, B.69 25, 20 days after treatment
  herbicidal activity against GALAP found: 65%
[1]; a.i. g/ha: I.1 62.5, B.77 75, 20 days after treatment
  herbicidal activity against GALAP found: 10%
[1]; a.i. g/ha: I.1 62.5, B.82 31.25, 20 days after treatment
  herbicidal activity against GALAP found: 65%
[1]; application rate a.i.: I.1 31.25 g/ha, B.84 (paraquat-dichloride) 17.5 g/ha, alone or as mixture (composition 1.84)
  herbicidal activity against GALAP found: 65
[1]; application rate a.i.: I.1 62.5 g/ha, B.107 (topramezone) 6 g/ha, alone or as mixture (composition 1.107)
  herbicidal activity against GALAP found: 10
[1]; application rate a.i.: I.1 125 g/ha, B.113 (glyphosate) 33.75 g/ha, alone or as mixture (composition 1.113)
  herbicidal activity against GALAP found: 80
[1]; application rate a.i.: I.1 125 g/ha, B.113 (glyphosate) 135 g/ha, alone or as mixture (composition 1.113)
  herbicidal activity against GALAP found: 80
[1]; [5]
  herbicidal activity against GALAP found: 50
[1]; applied alone at 62.5 g/ha a.i.
  herbicidal activity against GALAP found: 90
[1]; applied alone at 125 g/ha a.i.
  herbicidal activity against GALAP found: 65 and 95 and 90
[2]; Ipomoea hederacea, post-emergence, 480 h, read-out: herbicidal activity against IPOHE found
  pest or weed control at 31.25 g/ha: 75%
[2]; Ipomoea hederacea, post-emergence, 480 h, 62.5 g/ha a.i., read-out: herbicidal activity against IPOHE found
  pest or weed control at 62.5 g/ha: 90%
[2]; Ipomoea hederacea, post-emergence, 480 h, single active, read-out: herbicidal activity against IPOHE found
  pest or weed control at 31.25 g/ha: 55%
[2]; Ipomoea hederacea, post-emergence, 480 h, single active, 125 g/ha a.i., read-out: herbicidal activity against IPOHE found
  pest or weed control at 125 g/ha: 95%
[2]; 6 days after treatment, g/ha a.i.: I.1 31.25, B.96 35, mixture 31.25+35
  herbicidal activity against IPOHE found: 70
[2]; 6 days after treatment, g/ha a.i.: I.1 31.25, B.96 70, mixture 31.25+70
  herbicidal activity against IPOHE found: 70
[2]; 6 days after treatment, g/ha a.i.: I.1 31.25, B.96 140, mixture 31.25+140
  herbicidal activity against IPOHE found: 70
[2]; 6 days after treatment, g/ha a.i.: I.1 62.5, B.96 140, mixture 62.5+140
  herbicidal activity against IPOHE found: 80
[2]; I.1 15.6 g/ha, B.103 7.5 g/ha a.i.
  herbicidal activity against IPOHE found: 20
[2]; I.1 15.62 g/ha, B.89 25 g/ha a.i.
  herbicidal activity against IPOHE found: 25
[2]; [6]
  herbicidal activity against IPOHE found: 70
[2]; I.1 31.25 g/ha, B.89 25 g/ha a.i.
  herbicidal activity against IPOHE found: 25
[2]; I.1 62.5 g/ha, B.57 1 g/ha a.i.
  herbicidal activity against IPOHE found: 30
[2]; I.1 62.5 g/ha, B.89 12.5 g/ha a.i.
  herbicidal activity against IPOHE found: 30
[2]; I.1 62.5 g/ha, B.89 25 g/ha a.i.
  herbicidal activity against IPOHE found: 30
[2]; a.i. g/ha: I.1 15.6, B.190 62.5, 20 days after treatment
  herbicidal activity against IPOHE found: 50%
[2]; a.i. g/ha: I.1 31.25, B.190 62.5, 20 days after treatment
  herbicidal activity against IPOHE found: 65%
[2]; [7]
  herbicidal activity against IPOHE found: 95
[2]; g/ha a.i.: I.1 31.25, B.20 2, mixture 31.25+2
  herbicidal activity against IPOHE found: 25
[2]; g/ha a.i.: I.1 31.25, B.24 1, mixture 31.25+1
  herbicidal activity against IPOHE found: 25
[3]; 62.5 g/ha a.i.
  herbicidal activity against PAPRH found: 50
[3]; I.1 15.62 g/ha, B.103 15 g/ha a.i.
  herbicidal activity against PAPRH found: 30
[3]; I.1 15.62 g/ha, B.88 2 g/ha a.i.
  herbicidal activity against PAPRH found: 70
[3]; [6]
  herbicidal activity against PAPRH found: 30
[3]; I.1 31.25 g/ha, B.88 1 g/ha a.i.
  herbicidal activity against PAPRH found: 75
[3]; I.1 31.25 g/ha, B.88 2 g/ha a.i.
  herbicidal activity against PAPRH found: 75
[3]; I.1 31.25 g/ha, B.95 1 g/ha a.i.
  herbicidal activity against PAPRH found: 75
[3]; I.1 62.5 g/ha, B.57 2 g/ha a.i.
  herbicidal activity against PAPRH found: 75
[3]; I.1 62.5 g/ha, B.88 1 g/ha a.i.
  herbicidal activity against PAPRH found: 75
[3]; I.1 62.5 g/ha, B.88 2 g/ha a.i.
  herbicidal activity against PAPRH found: 75
[3]; I.1 62.5 g/ha, B.95 1 g/ha a.i.
  herbicidal activity against PAPRH found: 75
[3]; I.1 alone 31.25 g/ha a.i.
  herbicidal activity against PAPRH found: 70
[3]; [7]
  herbicidal activity against PAPRH found: 65
[3]; application rate a.i.: I.1 62.5 g/ha, B.87 (carfentrazone-ethyl) 1.75 g/ha, alone or as mixture (composition 1.87)
  herbicidal activity against PAPRH found: 85
[3]; [5]
  herbicidal activity against PAPRH found: 65
[4]; B.139 (pyroxasulfone) 25 g/ha, alone or as mixture (composition 1.139)
  herbicidal activity against SEBEX, found: 80
[4]; B.87 (carfentrazone-ethyl) 1.75 g/ha, alone or as mixture (composition 1.87)
  herbicidal activity against SEBEX, found: 75
